The values that follow come from patent US12077608B2, “Stapled H2 pyrin peptides” (H. LEE MOFFITT CANCER CENTER AND RESEARCH INSTITUTE, INC., priority 2018, dated 2024).

Bridge positions count the residues as written; N and C are the ends. Square brackets hold non-standard residues; d marks the D form. Ends that are not written are not given here. Peptide text beside a SMILES is read from it. * marks the point of attachment. FITC = O=C1OC2(c3ccc(O)cc3Oc3cc(O)ccc32)c2ccc(NC(=S)*)cc21; S5 = C=CCCC[C@](C)(N)C(=O)O; Nle = CCCC[C@H](N)C(=O)O; βAla = NCCC(=O)O

In one series the target is T1, GST-NLRP3^PYD (Homo sapiens, UniProt Q96P20).
T1 construct: human NLRP3 (residues 3-110) was cloned into a pET-21b vector; made in house; host or cells: E. coli BL21 DE3
T1 sequence (Q96P20 3-110): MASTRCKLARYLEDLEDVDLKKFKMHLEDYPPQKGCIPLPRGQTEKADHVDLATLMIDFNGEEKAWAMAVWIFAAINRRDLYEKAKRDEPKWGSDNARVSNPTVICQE
Description: KD (μM) | GST-NLRP3^PYD. The text has this:
(§1) Table printed on a drawing sheet, FIG. 10
Head of the field: KD (μM) | GST-NLRP3^PYD
(§2) The patent's description of the figure: FIG. 10 is a table showing the results from a fluorescence anisotropy binding assay to determine the accurate binding affinities of stapled peptides fPOP1-H2 (SEQ ID NO: 2), fSAH-POP1-1 (SEQ ID NO: 1), fSAH-POP1-3 (SEQ ID NO: 3), fSAH-POP1-4 (SEQ ID NO: 4), fSAH-POP1-5 (SEQ ID NO: 5), fSAH-POP1-6 (SEQ ID NO: 6), fSAH-POP1-7 (SEQ ID NO: 7), fSAH-POP1-8 (SEQ ID NO: 8), fSAH-POP1-9 (SEQ ID NO: 9), fSAH-POP1-10 (SEQ ID NO: 10), fSAH-POP1-11 (SEQ ID NO: 11), fSAH-POP1-12 (SEQ ID NO: 12), fSAH-POP1-13 (SEQ ID NO: 13), fSAH-POP1-14 (SEQ ID NO: 14), fSAH-POP1-15 (SEQ ID NO: 15), fSAH-POP1-16 (SEQ ID NO: 16), fSAH-POP1-17 (SEQ ID NO: 17), fSAH-POP1-18 (SEQ ID NO: 18), fSAH-POP1-19 (SEQ ID NO: 19), fSAH-POP1-20 (SEQ ID NO: 20), fSAH-POP1-21 (SEQ ID NO: 21), fSAH-POP1-22 (SEQ ID NO: 22), fSAH-POP1-23 (SEQ ID NO: 23), fSAH-POP1-24 (SEQ ID NO: 24), fSAH-POP1-25 (SEQ ID NO: 25), fSAH-POP1-26 (SEQ ID NO: 26), fSAH-POP1-27 (SEQ ID NO: 27), fSAH-POP1-28 (SEQ ID NO: 28), fSAH-POP1-29 (SEQ ID NO: 29), fSAH-POP1-30 (SEQ ID NO: 30), fSAH-POP1-31 (SEQ ID NO: 31).
(§3) First copying reader's note: Second part of the same figure; in the structures S5, NL (N with lowered L) and NH2 carry lowered signs, a drawn bracket joins the two S5 residues (staple), and the SEQ ID NO column is printed outside the table frame.
Where the first naming reader finds the target: head: GST-NLRP3^PYD

Another series concerns the target T2, GST-ASC^PYD (Homo sapiens, UniProt Q9ULZ3).
T2 construct: human ASC (residues 1-106) was cloned into a pGEX-4T1 vector; made in house; host or cells: E. coli BL21 DE3
Description: KD (μM) | GST-ASC^PYD.
Source text: as §1
Head of the field: KD (μM) | GST-ASC^PYD
as §2, §3
Where the first naming reader finds the target: head: GST-ASC^PYD

In series [1] the test system is ASC speck formation in THP-1 ASC-GFP cells. Description: ASC speck assay, live-cell imaging. The format is cell-based, Human. The settings on record: for ASC speck formation remaining with inhibitor: 5 μM peptide, nigericin at 5 μM gives 38%. How it is done:
ASC speck is a hallmark of inflammasome formation (Dick et al., 2016; Hoss et al., 2017) and observable by microscopy (Doyle et al., 2012; Stutz et al., 2013). THP-1 ASC-GFP cells stably expressing the ASC-GFP fusion protein (InvivoGen Catalog #: thp-ascgfp) were used to visualize the inhibitory effect of SAH-POP1-4 on ASC specks formation (Fernandes-Alnemri et al., 2007).
Experimental Procedure for ASC Speck Assay. THP1 ASC-GFP cells were seeded at 2×10^6/ml (0.7-1 mL) in RPMI1640 medium with 10% FCS in FluoroDish (FD35-100) and cultivated in the presence of 50 nM phorbol-12-myristate-13-acetate (PMA) for 24 h, then media was replaced by fresh media and incubated for 24 h. Then cells were stimulated with 200 ng/ml LPS from E. coli (sigma) for 3 h. The media was removed and replaced with serum-free medium (OptiMEM) containing DMSO (1:1,000), 20 μM inhibitors for 30 min. […] Control samples were incubated with media lacking LPS or nigericin. Then, ASC specks were tested by confocal microscopy SP8 (Leica Microsystems).
ASC speck is the hallmark of inflammasome formation and observable by microscopy. THP-1 ASC-GFP cells stably expressing the ASC-GFP fusion protein (InvivoGen Catalog #: thp-ascgfp) were used to visualize the inhibitory effect of SAH-POP1-17 on ASC specks formation (Fernandes-Alnemri et al., 2007). […] SAH-POP1-17 at 5 μM inhibited ASC speck formation to 4%, and SAH-POP1-18 at 5 μM inhibited ASC speck formation to 8%.

Series [2] can be described thus: Circular dichroism (CD) secondary structure of the peptides. To be noted: aqueous solution; 100 μM peptide in 10 mM potassium phosphate, 100 mM potassium fluoride buffer (pH=7.5). The format is physicochemical. How it is done: Circular dichroism (CD) was used to determine the secondary structure of the peptides. […] Hydrocarbon stapling promoted α-helix contents with SAH-POP1-4 and SAH-POP1-8 having the highest in aqueous solution.
CD spectra were recorded on an AVIV Model 215 Circular Dichroism Spectrometer. Each spectrum was collected with the wavelength between 190 to 260 nm, 0.5 nm increments, and 0.5 s averaging time using a 1-mm path length cell. The peptide concentration was 100 μM in 10 mM potassium phosphate and 100 mM potassium fluoride buffer (pH=7.5). The studied peptides were completely dissolved in this buffer. CD spectra were initially plotted as wavelength versus millidgree, the default output of the instrument. Once the precise peptide concentration was confirmed, the mean residue ellipticity [Θ] was calculated for the y-axis.
For orientation: Circular dichroism is widely used to follow secondary structure.

T2 sequence (Q9ULZ3 1-106): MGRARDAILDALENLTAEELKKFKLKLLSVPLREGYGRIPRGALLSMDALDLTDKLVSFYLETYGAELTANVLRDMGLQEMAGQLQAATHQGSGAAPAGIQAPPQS

In the case of `CCCC[C@H](NC(=O)[C@H](Cc1c[nH]c2ccccc12)NC(=O)[C@H](CCC(N)=O)NC(=O)[C@]1(C)CCCC=CCCC[C@](C)(NC(=O)[C@H](CCC(N)=O)NC(=O)CCNC(=S)Nc2ccc3c(c2)C(=O)OC32c3ccc(O)cc3Oc3cc(O)ccc32)C(=O)N[C@@H](CO)C(=O)N[C@@H](CCCNC(=N)N)C(=O)N[C@@H](CCCNC(=N)N)C(=O)N1)C(=O)N[C@@H](CCC(N)=O)C(=O)N[C@@H](Cc1c[nH]c2ccccc12)C(=O)N[C@H](C(=O)N[C@@H](C)C(N)=O)[C@@H](C)O` [fSAH-POP1-26] ({FITC-βAla}-Q[S5]SRR[S5]QW[Nle]QWTA-NH2; staple 2-6), the Kd is 11 ± 1.1 µM on GST-NLRP3^PYD and 5 ± 0.79 µM on GST-ASC^PYD. Consider `CCCC[C@H](NC(=O)[C@H](Cc1c[nH]c2ccccc12)NC(=O)[C@H](CCCCN)NC(=O)[C@]1(C)CCCC=CCCC[C@](C)(NC(=O)[C@H](CCC(N)=O)NC(=O)CCNC(=S)Nc2ccc3c(c2)C(=O)OC32c3ccc(O)cc3Oc3cc(O)ccc32)C(=O)N[C@@H](CO)C(=O)N[C@@H](CCCNC(=N)N)C(=O)N[C@@H](CCCNC(=N)N)C(=O)N1)C(=O)N[C@@H](CCC(N)=O)C(=O)N[C@@H](Cc1c[nH]c2ccccc12)C(=O)N[C@H](C(=O)N[C@@H](C)C(N)=O)[C@@H](C)O` [fSAH-POP1-27] ({FITC-βAla}-Q[S5]SRR[S5]KW[Nle]QWTA-NH2; staple 2-6), for which the Kd at GST-NLRP3^PYD was determined as 7.9 ± 1.1 µM; at GST-ASC^PYD, 3.9 ± 0.68 µM. The like results for `CCCC[C@H](NC(=O)[C@H](Cc1c[nH]c2ccccc12)NC(=O)[C@H](CCC(N)=O)NC(=O)[C@]1(C)CCCC=CCCC[C@](C)(NC(=O)[C@H](CCC(N)=O)NC(=O)CCNC(=S)Nc2ccc3c(c2)C(=O)OC32c3ccc(O)cc3Oc3cc(O)ccc32)C(=O)N[C@@H](CC(C)C)C(=O)N[C@@H](CCCNC(=N)N)C(=O)N[C@@H](CCCNC(=N)N)C(=O)N1)C(=O)N[C@@H](CC(C)C)C(=O)NCC(=O)N[C@H](C(=O)N[C@@H](C)C(N)=O)[C@@H](C)O` [fSAH-POP1-28] ({FITC-βAla}-Q[S5]LRR[S5]QW[Nle]LGTA-NH2; staple 2-6) were, in that order, 7.7 ± 1.5 µM and 7.2 ± 1.1 µM.

Turning to `CCCC[C@H](NC(=O)[C@H](Cc1c[nH]c2ccccc12)NC(=O)[C@H](CCC(N)=O)NC(=O)[C@]1(C)CCCC=CCCC[C@](C)(NC(=O)[C@H](CCC(N)=O)NC(=O)CCNC(=S)Nc2ccc3c(c2)C(=O)OC32c3ccc(O)cc3Oc3cc(O)ccc32)C(=O)N[C@@H](CC(C)C)C(=O)N[C@@H](CCCNC(=N)N)C(=O)N[C@@H](CCCNC(=N)N)C(=O)N1)C(=O)N[C@@H](CC(C)C)C(=O)N[C@@H](CC(=O)O)C(=O)N[C@H](C(=O)N[C@@H](C)C(N)=O)[C@@H](C)O` [fSAH-POP1-29] ({FITC-βAla}-Q[S5]LRR[S5]QW[Nle]LDTA-NH2; staple 2-6), the Kd on GST-NLRP3^PYD was 6 ± 0.92 µM; at GST-ASC^PYD, 5.5 ± 0.69 µM. As to `CCCC[C@H](NC(=O)[C@H](Cc1c[nH]c2ccccc12)NC(=O)[C@H](CCC(N)=O)NC(=O)[C@]1(C)CCCC=CCCC[C@](C)(NC(=O)[C@H](CCC(N)=O)NC(=O)CCNC(=S)Nc2ccc3c(c2)C(=O)OC32c3ccc(O)cc3Oc3cc(O)ccc32)C(=O)N[C@@H](CC(C)C)C(=O)N[C@@H](CCCNC(=N)N)C(=O)N[C@@H](CCCNC(=N)N)C(=O)N1)C(=O)N[C@@H](CC(C)C)C(=O)N[C@@H](CC(N)=O)C(=O)N[C@H](C(=O)N[C@@H](C)C(N)=O)[C@@H](C)O` [fSAH-POP1-30] ({FITC-βAla}-Q[S5]LRR[S5]QW[Nle]LNTA-NH2; staple 2-6), the Kd at GST-NLRP3^PYD is 6.7 ± 1.2 µM; on GST-ASC^PYD it was 7.5 ± 1.1 µM. As for `CCCC[C@H](NC(=O)[C@H](Cc1c[nH]c2ccccc12)NC(=O)[C@H](CCC(N)=O)NC(=O)[C@]1(C)CCCC=CCCC[C@](C)(NC(=O)[C@H](CCC(N)=O)NC(=O)CCNC(=S)Nc2ccc3c(c2)C(=O)OC32c3ccc(O)cc3Oc3cc(O)ccc32)C(=O)N[C@@H](CC(C)C)C(=O)N[C@@H](CCCNC(=N)N)C(=O)N[C@@H](CCCNC(=N)N)C(=O)N1)C(=O)N[C@@H](CC(C)C)C(=O)N[C@@H](CO)C(=O)N[C@H](C(=O)N[C@@H](C)C(N)=O)[C@@H](C)O` [fSAH-POP1-31] ({FITC-βAla}-Q[S5]LRR[S5]QW[Nle]LSTA-NH2; staple 2-6), the dissociation constant Kd was found to be 4.7 ± 0.54 µM at GST-NLRP3^PYD and 7.8 ± 1.1 µM at GST-ASC^PYD. In the case of `CO[C@@H]1C[C@@H](C[C@H]2CC[C@H](C)[C@H]([C@@H](C)C(=O)O)O2)O[C@]2(O[C@](C)([C@H]3CC[C@@](C)([C@@H]4O[C@@H]([C@H]5O[C@@](O)(CO)[C@H](C)C[C@@H]5C)C[C@@H]4C)O3)C[C@H]2C)[C@@H]1C` [nigericin, reference compound], the “activation of ASC speck formation” value in series [1] (nigericin at 2 μM) was “activated ASC speck formation”. Further, the “ASC speck formation activated” value in series [1] (nigericin at 5 μM, no inhibitor) turned out to be 38%. For the compound “POP1-H2: Reference peptide, unstapled, amino acid sequence EELKKFKMKLGTV [reference compound]”, in series [2], the “α-helical structure / α-helix contents by circular dichroism” value is “does not exhibit α-helical structure”. For “SAH-POP1-17: Stapled peptide synthesized by FIG. 11, SEQ ID NO: 44 (QXLRRXQWXLWTA; hydrocarbon staple; (2)..(2) X= S5=(S)-2-(4-pentenyl)alanineS5, the two Xs are also directly connected by a double bond; (6)..(6) X= S5=(S)-2-(4-pentenyl)alanineS5, the two Xs are also directly connected by a double bond; (9)..(9) X= NL = norleucine)”, in series [1], the “ASC speck formation remaining with inhibitor” value stood at 4%. Regarding “SAH-POP1-18: Stapled peptide synthesized by FIG. 11, SEQ ID NO: 45 (Q[S5]LRR[S5]QWFLWTA-NH2; staple 2-6; N-terminus assumed; SMILES CC(C)C[C@H](NC(=O)[C@H](Cc1ccccc1)NC(=O)[C@H](Cc1c[nH]c2ccccc12)NC(=O)[C@H](CCC(N)=O)NC(=O)[C@]1(C)CCCC=CCCC[C@](C)(NC(=O)[C@@H](N)CCC(N)=O)C(=O)N[C@@H](CC(C)C)C(=O)N[C@@H](CCCNC(=N)N)C(=O)N[C@@H](CCCNC(=N)N)C(=O)N1)C(=O)N[C@@H](Cc1c[nH]c2ccccc12)C(=O)N[C@H](C(=O)N[C@@H](C)C(N)=O)[C@@H](C)O)”, the “ASC speck formation remaining with inhibitor” value in series [1] was 8%.

What is called Kd is the concentration at which binding is half-saturated.
